In patent US20260138957A1, “UREA-LINKED 2-AMINOIMIDAZOLE DIMER POTENTIATORS” (UNIVERSITY OF NOTRE DAME DU LAC, priority 2022, published 2026):

Legend:
Assay type in all cases: cell-based, Acinetobacter baumannii
[1] = tested on: A. baumannii strain 5075 (AB5075); experiment: Standalone MIC against AB5075 (compound or antibiotic alone); design: MIC against AB5075 (inherent anti-bacterial activity): unit not given beside the values; details: compound alone; for MIC: Acinetobacter baumannii, AB5075; for MIC against AB5075 (inherent anti-bacterial activity): newly synthesized material
Text: Dimers were first analyzed for standalone toxicity against AB5075.

[2] = tested on: A. baumannii strain 5075 (AB5075); experiment: Clarithromycin potentiation against AB5075 (CLR MIC in presence of adjuvant); details: for Clarithromycin (CLR) MIC / Fold Reduction of CLR MIC: AB5075
AB 5075 = experiment: Colistin MIC in absence or presence of compounds against AB 5075; details: adjuvant at 30 μM, AB5075
Text: However, dropping LOS comes with fitness costs such as reduced growth rates, lower virulence, and increased sensitivity towards certain antibiotics.

AB5075 = experiment: Potentiation of azithromycin, erythromycin and rifampin against AB5075; details: AB5075, adjuvant at ≤30% their MIC

SMILES	MIC ([1]; value in brackets) [µg/mL]	MIC against AB5075 (inherent anti-bacterial activity) [1]	Clarithromycin (CLR) MIC ([2]; adjuvant at 10 μM) [µg/mL]	Fold Reduction of CLR MIC ([2]; adjuvant at 10 μM) [fold]	Clarithromycin (CLR) MIC ([2]; adjuvant at 20 μM) [µg/mL]	Fold Reduction of CLR MIC ([2]; adjuvant at 20 μM) [fold]	Clarithromycin (CLR) MIC ([2]; adjuvant at 30 μM) [µg/mL]	Fold Reduction of CLR MIC ([2]; adjuvant at 30 μM) [fold]	Colistin MIC (AB 5075) [µg/mL]	activity in combination with AZM, ERM and RIF (in words) (AB5075)	Clarithromycin (CLR) MIC ([2]; adjuvant at 7.5 μM) [µg/mL]	Fold Reduction of CLR MIC ([2]; adjuvant at 7.5 μM) [fold]	MIC [1] [µM]	Clarithromycin (CLR) MIC ([2]; adjuvant at 5 μM) [µg/mL]	Fold Reduction of CLR MIC ([2]; adjuvant at 5 μM) [fold]	CLR potentiation activity (in words) ([2]; AB5075, 30 μM)
Nc1nc(-c2ccc(NC(=O)Nc3cccc(-c4c[nH]c(N)n4)c3)cc2)c[nH]1 [Compound 4]	> 447	> 200	16	2	1	32	0.125	256	0.25	significant activity	–	–	–	–	–	–
Nc1nc(-c2ccc(NC(=O)Nc3ccc(-c4c[nH]c(N)n4)cc3)cc2)c[nH]1 [Compound 3]	–	> 200	4	8	0.5	64	0.125	256	2	significant activity	8	4	–	–	–	–
Nc1nc(-c2cc(F)cc(NC(=O)Nc3ccc(-c4c[nH]c(N)n4)c(F)c3)c2)c[nH]1 [Compound 9j]	–	–	0.125	256	0.125	256	0.0625	512	–	–	0.25	128	> 200	1	32	–
Nc1nc(-c2ccc(NC(=O)Nc3ccc(-c4c[nH]c(N)n4)c(Cl)c3)cc2Cl)c[nH]1 [Compound 14b]	–	–	–	–	–	–	32	1	–	–	–	–	> 200	–	–	abolished all activity
Nc1nc(-c2ccc(NC(=O)Nc3ccc(F)c(-c4c[nH]c(N)n4)c3)cc2F)c[nH]1 [Compound 9h]	–	–	–	–	4	8	0.5	64	–	–	–	–	> 200	–	–	–
Nc1nc(-c2ccc(F)c(NC(=O)Nc3cc(-c4c[nH]c(N)n4)ccc3F)c2)c[nH]1 [Compound 9e]	–	–	–	–	–	–	32	1	–	–	–	–	> 200	–	–	–
